Measured values: PubChem BioAssay (NCI)
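Exposure lasted 48 hours, with cells grown in 96-well plates and compounds tested at five concentrations. GI50 is the concentration that inhibits growth by half. The concentration for full growth arrest is given as TGI.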

What was measured:
Test in all cases: NCI anticancer screen, dose series, 48 h
SNB-19 CNS = test system: SNB-19 CNS
SN12C renal = test system: SN12C renal
MALME-3M melanoma = test system: MALME-3M melanoma
CCRF-CEM leukemia = test system: CCRF-CEM leukemia
HOP-92 NSCLC = test system: HOP-92 NSCLC
HCT-15 colon = test system: HCT-15 colon
OVCAR-5 ovarian = test system: OVCAR-5 ovarian
SW-620 colon = test system: SW-620 colon
UACC-62 melanoma = test system: UACC-62 melanoma
PC-3 prostate = test system: PC-3 prostate
SK-OV-3 ovarian = test system: SK-OV-3 ovarian
K-562 leukemia = test system: K-562 leukemia
MCF7 breast = test system: MCF7 breast
OVCAR-3 ovarian = test system: OVCAR-3 ovarian
786-0 renal = test system: 786-0 renal
A498 renal = test system: A498 renal
SF-268 CNS = test system: SF-268 CNS
NCI/ADR-RES ovarian = test system: NCI/ADR-RES ovarian
HL-60(TB) leukemia = test system: HL-60(TB) leukemia
EKVX NSCLC = test system: EKVX NSCLC
SNB-75 CNS = test system: SNB-75 CNS
ACHN renal = test system: ACHN renal
SK-MEL-2 melanoma = test system: SK-MEL-2 melanoma
IGROV1 ovarian = test system: IGROV1 ovarian
A549 NSCLC = test system: A549 NSCLC
MDA-MB-435 = test system: MDA-MB-435
HCC-2998 colon = test system: HCC-2998 colon
CAKI-1 renal = test system: CAKI-1 renal
BT-549 breast = test system: BT-549 breast
LOX IMVI melanoma = test system: LOX IMVI melanoma
U251 CNS = test system: U251 CNS
TK-10 renal = test system: TK-10 renal
MOLT-4 leukemia = test system: MOLT-4 leukemia
COLO 205 colon = test system: COLO 205 colon
OVCAR-4 ovarian = test system: OVCAR-4 ovarian
UACC-257 melanoma = test system: UACC-257 melanoma
RPMI-8226 leukemia = test system: RPMI-8226 leukemia
HCT-116 colon = test system: HCT-116 colon
KM12 colon = test system: KM12 colon
SR leukemia = test system: SR leukemia
DU-145 prostate = test system: DU-145 prostate
SF-539 CNS = test system: SF-539 CNS
RXF 393 renal = test system: RXF 393 renal
UO-31 renal = test system: UO-31 renal
SK-MEL-28 melanoma = test system: SK-MEL-28 melanoma
SF-295 CNS = test system: SF-295 CNS
NCI-H226 lung = test system: NCI-H226 lung
HT29 colon = test system: HT29 colon
HS 578T breast = test system: HS 578T breast
M14 melanoma = test system: M14 melanoma
HOP-62 NSCLC = test system: HOP-62 NSCLC
OVCAR-8 ovarian = test system: OVCAR-8 ovarian
NCI-H460 lung = test system: NCI-H460 lung
MDA-MB-231 breast = test system: MDA-MB-231 breast
T-47D breast = test system: T-47D breast
NCI-H23 lung = test system: NCI-H23 lung
NCI-H522 lung = test system: NCI-H522 lung
SK-MEL-5 melanoma = test system: SK-MEL-5 melanoma

O=c1oc2ccc(Cl)cc2c(=O)n1-c1ccc(I)cc1F
GI50 (SNB-19 CNS): 206 nM
TGI (SNB-19 CNS): > 100000 nM
GI50 (SN12C renal): 204 nM
TGI (SN12C renal): 3070 nM
GI50 (MALME-3M melanoma): 158 nM
TGI (MALME-3M melanoma): 813 nM
GI50 (CCRF-CEM leukemia): 702 nM
TGI (CCRF-CEM leukemia): 5140 nM
GI50 (HOP-92 NSCLC): 57.1 nM
TGI (HOP-92 NSCLC): 202 nM
GI50 (HCT-15 colon): 231 nM
TGI (HCT-15 colon): 6740 nM
GI50 (OVCAR-5 ovarian): 3580 nM
TGI (OVCAR-5 ovarian): > 100000 nM
GI50 (SW-620 colon): 384 nM
TGI (SW-620 colon): 7580 nM
GI50 (UACC-62 melanoma): 104 nM
TGI (UACC-62 melanoma): 788 nM
GI50 (PC-3 prostate): 924 nM
TGI (PC-3 prostate): 6920 nM
GI50 (SK-OV-3 ovarian): 451 nM
TGI (SK-OV-3 ovarian): 4310 nM
GI50 (K-562 leukemia): 176 nM
TGI (K-562 leukemia): > 100000 nM
GI50 (MCF7 breast): 258 nM
TGI (MCF7 breast): > 23900 nM
GI50 (OVCAR-3 ovarian): 177 nM
TGI (OVCAR-3 ovarian): 13300 nM
GI50 (786-0 renal): 1360 nM
TGI (786-0 renal): 4130 nM
GI50 (A498 renal): 55 nM
TGI (A498 renal): 182 nM
GI50 (SF-268 CNS): 260 nM
TGI (SF-268 CNS): 4110 nM
GI50 (NCI/ADR-RES ovarian): 300 nM
TGI (NCI/ADR-RES ovarian): 2870 nM
GI50 (HL-60(TB) leukemia): 286 nM
TGI (HL-60(TB) leukemia): 1360 nM
GI50 (EKVX NSCLC): 444 nM
TGI (EKVX NSCLC): 4980 nM
GI50 (SNB-75 CNS): 200 nM
TGI (SNB-75 CNS): 1360 nM
GI50 (ACHN renal): 315 nM
TGI (ACHN renal): 7510 nM
GI50 (SK-MEL-2 melanoma): 116 nM
TGI (SK-MEL-2 melanoma): 945 nM
GI50 (IGROV1 ovarian): 190 nM
TGI (IGROV1 ovarian): > 42300 nM
GI50 (A549 NSCLC): 1010 nM
TGI (A549 NSCLC): > 100000 nM
GI50 (MDA-MB-435): 271 nM
TGI (MDA-MB-435): 3860 nM
GI50 (HCC-2998 colon): 2660 nM
TGI (HCC-2998 colon): 8510 nM
GI50 (CAKI-1 renal): 172 nM
TGI (CAKI-1 renal): 1020 nM
GI50 (BT-549 breast): 168 nM
TGI (BT-549 breast): 1000 nM
GI50 (LOX IMVI melanoma): 248 nM
TGI (LOX IMVI melanoma): 1690 nM
GI50 (U251 CNS): 262 nM
TGI (U251 CNS): > 35600 nM
GI50 (TK-10 renal): 605 nM
TGI (TK-10 renal): 11400 nM
GI50 (MOLT-4 leukemia): 384 nM
TGI (MOLT-4 leukemia): 1810 nM
GI50 (COLO 205 colon): 7000 nM
TGI (COLO 205 colon): 19700 nM
GI50 (OVCAR-4 ovarian): 225 nM
TGI (OVCAR-4 ovarian): > 87200 nM
GI50 (UACC-257 melanoma): 137 nM
TGI (UACC-257 melanoma): 1610 nM
GI50 (RPMI-8226 leukemia): 90.7 nM
TGI (RPMI-8226 leukemia): 436 nM
GI50 (HCT-116 colon): 255 nM
TGI (HCT-116 colon): 1350 nM
GI50 (KM12 colon): 2210 nM
TGI (KM12 colon): 5550 nM
GI50 (SR leukemia): 228 nM
TGI (SR leukemia): 5970 nM
GI50 (DU-145 prostate): 436 nM
TGI (DU-145 prostate): > 49500 nM
GI50 (SF-539 CNS): 231 nM
TGI (SF-539 CNS): 2690 nM
GI50 (RXF 393 renal): 339 nM
TGI (RXF 393 renal): 1570 nM
GI50 (UO-31 renal): 126 nM
TGI (UO-31 renal): 1200 nM
GI50 (SK-MEL-28 melanoma): 178 nM
TGI (SK-MEL-28 melanoma): 2010 nM
GI50 (SF-295 CNS): 1030 nM
TGI (SF-295 CNS): 2790 nM
GI50 (NCI-H226 lung): 566 nM
TGI (NCI-H226 lung): 2920 nM
GI50 (HT29 colon): 3410 nM
TGI (HT29 colon): 22600 nM
GI50 (HS 578T breast): 161 nM
TGI (HS 578T breast): 1110 nM
GI50 (M14 melanoma): 165 nM
TGI (M14 melanoma): 1400 nM
GI50 (HOP-62 NSCLC): 855 nM
TGI (HOP-62 NSCLC): 3750 nM
GI50 (OVCAR-8 ovarian): 323 nM
TGI (OVCAR-8 ovarian): 15000 nM
GI50 (NCI-H460 lung): 199 nM
TGI (NCI-H460 lung): > 23800 nM
GI50 (MDA-MB-231 breast): 250 nM
TGI (MDA-MB-231 breast): 3570 nM
GI50 (T-47D breast): 152 nM
TGI (T-47D breast): 1110 nM
GI50 (NCI-H23 lung): 169 nM
TGI (NCI-H23 lung): 1500 nM
GI50 (NCI-H522 lung): 111 nM
TGI (NCI-H522 lung): 1830 nM
GI50 (SK-MEL-5 melanoma): 95 nM
TGI (SK-MEL-5 melanoma): 279 nM
